Test results as given in US6825230B2, “Spiro and dispiro 1,2,4-trixolane antimalarials” (Medicines for Malaria Venture MMV, priority 2002, dated 2004).

System: ANKA strain of P. berghei
Assay: Single dose STI in vivo screen in infected mice
Set-up: species or system Plasmodium berghei
Conditions: for Survival (days) 3 mg/kg SSV po / Activity (%) 3 mg/kg SSV po: single 3 mg/kg po in SSV; for Survival (days) 10 mg/kg SSV po: single 10 mg/kg po in SSV; for Survival (days) 10 mg/kg SSV po / Survival (days) 10 mg/kg po / Survival (days) 10 mg/kg sc: untreated 6-7 days; for Survival (days) 10 mg/kg po: single 10 mg/kg po in 3% ethanol and 7% Tween 80; for Activity (%) 10 mg/kg po: single 10 mg/kg po in 3% ethanol and 7% Tween 80 on day 1 post-infection; for Survival (days) 10 mg/kg sc: single 10 mg/kg sc in 3% ethanol and 7% Tween 80; for Activity (%) 10 mg/kg sc: single 10 mg/kg sc in 3% ethanol and 7% Tween 80 on day 1 post-infection
Method: In the single dose STI in vivo screen, Moro SPF or NMRI mice infected with the ANKA strain of P. berghei (groups of three mice) were treated on day one post-infection with trioxolanes dissolved or suspended in 3% ethanol and 7% Tween 80. […] SSV consists of 0.5% w/v CMC, 0.5% v/v benzyl alcohol, 0.4% v/v Tween 80, and 0.9% w/v sodium chloride in water. Antimalarial activity was measured by percent reduction in parasitemia on day three post-infection and survival times compared to an untreated control group. Survival to day 30 post-infection is considered to be a cure. […] Other factors influencing antimalarial activity include the stability of carbon radicals formed by β-scission subsequent to the initial electron transfer to the peroxide bond and the influence of steric effects remote from the peroxide bond on the interactions between carbon radicals and potential drug targets.
Moro NMRI male mice (Fu Albino specific pathogen free) weighing 18±2 g were infected intravenously (i.v.) with 2×10^7 P. berghei ANKA strain-infected erythrocytes from donor mice on day 0 of the experiment. From donor mice with circa 30% parasitemia, heparinized blood was taken and diluted in physiological saline to 10^8 parasitized erythrocytes per ml. An aliquot (0.2 ml) of this suspension was injected i.v. into experimental and control groups of mice. […] Throughout the experiments, mice were kept in groups of three or five animals in Makrolon type II cages in an air-conditioned animal room at 22 to 23° C.
They were administered per os (p.o.) in a total volume of 0.01 ml per gram of mouse. The activity of the compound was determined by a variety of methods outlined in subsequent sections. Survival time was also recorded, and survival to day 30 post-infection was considered to be a cure.

[1] = percent reduction in parasitemia on day 3
[2] = single 10 mg/kg po in standard suspending vehicle (SSV) on day 1 post-infection, percent reduction in parasitemia on day 3

SMILES | Survival (days) 3 mg/kg SSV po | Survival (days) 10 mg/kg SSV po | Activity (%) 3 mg/kg SSV po [1] [%] | Activity (%) 10 mg/kg SSV po [2] | Survival (days) 10 mg/kg po [days] | Activity (%) 10 mg/kg po [1] [%] | Survival (days) 10 mg/kg sc [days] | Activity (%) 10 mg/kg sc [1] [%] | Activity (%) 10 mg/kg SSV po (po, 10 mg/kg)
N[C@H]1CCN(C(=O)C[C@H]2CC[C@]3(CC2)OO[C@]2(O3)C3CC4CC(C3)CC2C4)C1 [OZ338] | 8.0 days | 9.8 days |  |  |  |  |  |  | 
O=C(CNC(=O)c1cccnc1)NC[C@H]1CC[C@]2(CC1)OO[C@]1(O2)C2CC3CC(C2)CC1C3 [OZ316] | 8.0 days | 10.0 days | 7 | 69% |  |  |  |  | 
O=C(COc1ccc(Cl)cc1)N1CCC2(CC1)OOC1(O2)C2CC3CC(C2)CC1C3 (stereo not shown) [OZ101, Adamantane-2-spiro-3′-8′-(4′-chlorophenoxyacetyl)-1′,2′,4′-trioxa-8′-azaspiro[4.5]decane] |  | 5.3 days |  | 0% | 6.3 | 44 | 13 | 99.97 | 
CCOC(=O)CNC[C@H]1CC[C@]2(CC1)OO[C@]1(O2)C2CC3CC(C2)CC1C3 [OZ290] | 7.0 days | 9.0 days | 95 | 99.64% |  |  |  |  | 
NCCNC(=O)C[C@H]1CC[C@]2(CC1)OO[C@]1(O2)C2CC3CC(C2)CC1C3 [OZ305] | 9.6 days | 9.2 days | 96 |  |  |  |  |  | 
NC(=O)c1ccc(NC[C@H]2CC[C@]3(CC2)OOC2(O3)C3CC4CC(C3)CC2C4)cc1 (stereo partly shown) [OZ286] | 7.0 days | 8.7 days | 60 | 99.73% |  |  |  |  | 
CCNC(=O)NC[C@H]1CC[C@]2(CC1)OO[C@]1(O2)C2CC3CC(C2)CC1C3 [OZ291] | 6.8 days | 8.0 days | 34 | 98% |  |  |  |  | 
NS(=O)(=O)c1ccc(NC[C@H]2CC[C@]3(CC2)OO[C@]2(O3)C3CC4CC(C3)CC2C4)cc1 [OZ298] | 9.0 days | 9.4 days | 98 |  |  |  |  |  | 
Cc1ccc(NC(=O)N2CCC3(CC2)OOC2(O3)C3CC4CC(C3)CC2C4)cc1 (stereo not shown) [OZ142] |  | 6.3 days |  | 2% | 6.0 | 0 | 14.3 | 99.98 | 
O=C(c1ccncc1)N1CCC2(CC1)OOC1(O2)C2CC3CC(C2)CC1C3 (stereo not shown) [OZ100, Adamantane-2-spiro-3′-8′-(4′-pyridinylcarbonyl)-1′,2′,4′-trioxa-8′-azaspiro[4.5]decane] |  | 6.3 days |  | 36% | 6.7 | 61 | 7.0 | 80 | 
C[C@H](N)C(=O)NC[C@H]1CC[C@]2(CC1)OO[C@]1(O2)C2CC3CC(C2)CC1C3 [OZ335] | 10.0 days | 9.2 days | 97 |  |  |  |  |  | 
O=C(Nc1ccccc1)N1CCC2(CC1)OOC1(O2)C2CC3CC(C2)CC1C3 (stereo not shown) [OZ102, Adamantane-2-spiro-3′-8′-(phenylaminocarbonyl)-1′,2′,4′-trioxa-8′-azaspiro[4.5]decane] |  | 6.7 days |  | 73% | 7.0 | 92 | 19.7 | 99.97 | 
OC1(Cc2nc3ccccc3s2)CCC2(CC1)OOC1(O2)C2CC3CC(C2)CC1C3 (stereo not shown) [OZ276] |  | 7.3/ND days |  | 17/ND % |  |  |  |  | 
O=C(NC[C@H]1CC[C@]2(CC1)OO[C@]1(O2)C2CC3CC(C2)CC1C3)N1CCOCC1 [OZ272] | 6.6 days | 10.3 days | 49 | 98% |  |  |  |  | 
Nc1ncccc1C(=O)NC[C@H]1CC[C@]2(CC1)OOC1(O2)C2CC3CC(C2)CC1C3 (stereo partly shown) [OZ284] | 7.8 days | 9.0 days | 61 | 97% |  |  |  |  | 
O=C(Cn1ccnc1)N1CCC2(CC1)OOC1(O2)C2CC3CC(C2)CC1C3 (stereo not shown) [OZ103, Adamantane-2-spiro-3′-8′-(1′H-imidazol-1′-ylacetyl)-1′,2′,4′-trioxa-8′-azaspiro[4.5]decane] |  | 6.7 days |  | 63% | 7.3 | 86 | 7.3 | 87 | 

SMILES | Survival (days) 3 mg/kg SSV po | Survival (days) 10 mg/kg SSV po | Activity (%) 3 mg/kg SSV po [1] [%] | Activity (%) 10 mg/kg SSV po [2] | Survival (days) 10 mg/kg po [days] | Activity (%) 10 mg/kg po [1] [%] | Survival (days) 10 mg/kg sc [days] | Activity (%) 10 mg/kg sc [1] [%] | Activity (%) 10 mg/kg SSV po (po, 10 mg/kg)
O=S(=O)(C[C@H]1CC[C@]2(CC1)OO[C@]1(O2)C2CC3CC(C2)CC1C3)c1cccc[n+]1[O-] [OZ324] | 7.4 days | 9.4 days | 26 | 60% |  |  |  |  | 
O=C(Nc1ccc(Cl)cc1)N1CCC2(CC1)OOC1(O2)C2CC3CC(C2)CC1C3 (stereo not shown) [OZ192, Adamantane-2-spiro-3′-8′-[(4′-chlorophenylamino)carbonyl]-1′,2′,4′-trioxa-8′-azaspiro[4.5]decane] |  | 7.0 days |  | 45% | 6.0 | 38 | 13.7 | 99.98 | 
O=c1ccn(C[C@H]2CC[C@]3(CC2)OO[C@]2(O3)C3CC4CC(C3)CC2C4)cc1 [OZ302] | 9.0/9.0 days | 9.0/9.0 days | 88 |  |  |  |  |  | 
NC(=O)c1cn(C[C@H]2CC[C@]3(CC2)OO[C@]2(O3)C3CC4CC(C3)CC2C4)cn1 [OZ320] |  |  | 92 |  |  |  |  |  | 
O=C(C[C@H]1CC[C@]2(CC1)OO[C@]1(O2)C2CC3CC(C2)CC1C3)N1CCS(=O)(=O)CC1 [OZ342] | 6.4 days | 6.8 days | 0 | 27% |  |  |  |  | 
CS(=O)(=O)N(CC(N)=O)C[C@H]1CC[C@]2(CC1)OO[C@]1(O2)C2CC3CC(C2)CC1C3 [OZ308] | 6.6 days | 7.8 days | 30 | 86% |  |  |  |  | 
O=C(NC[C@H]1CC[C@]2(CC1)OOC1(O2)C2CC3CC(C2)CC1C3)c1ccc(O)nc1 (stereo partly shown) [OZ282] | 7.2 days | 8.3 days | 53 | 98.5% |  |  |  |  | 
c1cncc(NC[C@H]2CC[C@]3(CC2)OO[C@]2(O3)C3CC4CC(C3)CC2C4)c1 [OZ293] | 7.4 days | 8.8 days | 77 | 99.58% |  |  |  |  | 
NC(=O)C1CCN(C(=O)C[C@H]2CC[C@]3(CC2)OO[C@]2(O3)C3CC4CC(C3)CC2C4)CC1 [OZ311] | 7.0 days | 8.6 days | 40 | 80% |  |  |  |  | 
c1cnc(OC[C@H]2CC[C@]3(CC2)OO[C@]2(O3)C3CC4CC(C3)CC2C4)nc1 [OZ325] | 6.2 days | 8.8 days | 30 |  |  |  |  |  | 
N=C(N)NC(=O)C[C@H]1CC[C@]2(CC1)OO[C@]1(O2)C2CC3CC(C2)CC1C3 [OZ341] | 7.0 days | 8.0 days | 32 | 97% |  |  |  |  | 
O=C(NC[C@H]1CC[C@]2(CC1)OOC1(O2)C2CC3CC(C2)CC1C3)c1ccccc1O (stereo partly shown) [OZ280] |  | 5.7ND days |  |  |  |  |  |  | 0/ND %
Nc1nccnc1C(=O)NC[C@H]1CC[C@]2(CC1)OO[C@]1(O2)C2CC3CC(C2)CC1C3 [OZ330] | 7.2 days | 12.2 days | 82 |  |  |  |  |  | 
[O-][n+]1ccccc1SC[C@H]1CC[C@]2(CC1)OO[C@]1(O2)C2CC3CC(C2)CC1C3 [OZ328] | 7.6 days | 8.6 days | 75 | 99.77% |  |  |  |  | 
CCOC(=O)CCNCC1CCC2(CC1)OOC1(O2)C2CC3CC(C2)CC1C3.Cc1ccc(S(=O)(=O)O)cc1 (stereo not shown) [OZ318] | 7.6 days | 12.4 days | 29 | 88% |  |  |  |  | 
